Consider two compounds from patent publication US20130079345A1, “[…] ACTIVE DISUBSTITUTED TRIAZINE DERIVATIVES” (BAYER INTELLECTUAL PROPERTY GMBH, priority 2010, published 2013).

One assay deals with T1, CDK9 (Homo sapiens, UniProt P50750).
T1 construct: purchased Invitrogen
As to the kind of experiment: Lance Ultra KinaSelect Assay, CDK9. In kind it is biochemical. Conditions: read-out: Inhibition (IC50) CDK9. An outline of the steps:
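TR-FRET (Lance Ultra) detection of ULight-peptide phosphorylation by CDK/cyclin complexes using Eu-labelled anti-phospho antibody, in 50 mM HEPES pH 7.5, 10 mM MgCl2, 1 mM EGTA, 2 mM DTT, 0.01% Tween-20. Eight-point 1:3 dilutions, 1% DMSO, 1 h at room temperature; IC50 from sigmoidal dose-response curves.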

The next assay deals with T2, CDK7/CyclinH/Mat1 (Homo sapiens, UniProt P50613).
T2 construct: purchased Carna Biosciences
T2 sequence (P50613 whole entry): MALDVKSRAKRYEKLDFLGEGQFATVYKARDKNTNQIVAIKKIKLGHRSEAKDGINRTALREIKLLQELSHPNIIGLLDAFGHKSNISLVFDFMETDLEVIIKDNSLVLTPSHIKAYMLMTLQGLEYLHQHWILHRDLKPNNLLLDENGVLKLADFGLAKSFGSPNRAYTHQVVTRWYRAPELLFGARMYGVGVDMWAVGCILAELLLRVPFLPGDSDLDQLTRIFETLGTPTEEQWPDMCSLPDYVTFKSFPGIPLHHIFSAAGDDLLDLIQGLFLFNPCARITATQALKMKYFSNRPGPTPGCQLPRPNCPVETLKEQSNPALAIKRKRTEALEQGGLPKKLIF
T2 sequence (P51946 whole entry partner): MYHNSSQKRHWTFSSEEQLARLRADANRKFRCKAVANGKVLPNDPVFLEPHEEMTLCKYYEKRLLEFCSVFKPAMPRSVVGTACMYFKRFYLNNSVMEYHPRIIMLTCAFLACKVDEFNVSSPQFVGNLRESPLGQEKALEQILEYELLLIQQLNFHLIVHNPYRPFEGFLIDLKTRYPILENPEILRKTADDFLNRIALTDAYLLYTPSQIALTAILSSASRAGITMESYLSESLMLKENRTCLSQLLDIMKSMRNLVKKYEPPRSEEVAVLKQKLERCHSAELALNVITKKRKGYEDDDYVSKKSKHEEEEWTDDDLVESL
T2 sequence (P51948 whole entry partner): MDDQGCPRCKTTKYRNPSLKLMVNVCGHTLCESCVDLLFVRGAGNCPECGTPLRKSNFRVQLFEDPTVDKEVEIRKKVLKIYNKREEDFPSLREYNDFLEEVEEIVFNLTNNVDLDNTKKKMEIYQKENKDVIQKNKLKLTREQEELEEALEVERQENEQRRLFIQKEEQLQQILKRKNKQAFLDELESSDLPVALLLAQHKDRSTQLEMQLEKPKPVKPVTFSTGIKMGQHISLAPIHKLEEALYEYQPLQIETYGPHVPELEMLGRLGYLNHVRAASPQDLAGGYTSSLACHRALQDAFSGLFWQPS
As to the kind of experiment: Lance Ultra KinaSelect Assay, CDK7. In kind it is biochemical. The following applies: ATP 25 μM, read-out: Inhibition (IC50) CDK7. How it is done:
(§1) This protocol describes how the Lance Ultra KinaSelect Assay was performed to determine half maximal inhibitory concentration (IC50) of compounds of general formula (I) and CDK/Cyclin complexes. The principle behind this enzymatic assay is based upon the phosphorylation of the ULight-Peptide Substrat. It is detected by using a specific EU-labeled anti-phospho peptide antibody. The binding of the Eu-labeled anti-phospho peptide antibody to the phosphorylated U Light labeled peptide gives rise to a FRET-signal. Binding of an inhibitor to the kinase prevents phosphorylation of the ULight-MBP Substrat, resulting in a loss of FRET.
(§2) The compounds of general formula (I) summarized in Table 5 were diluted from a 10 mM DMSO stock solution 1:10 in a total volume of 15 μL DMSO. This compound predilution was then serial diluted 1:3 over 8 steps in DMSO and briefly spun down. Each compound solution was now diluted 1:20 in Enzymatic Buffer (HEPES: 50 mM, pH: 7.5; MgCl2: 10 mM; EGTA: 1 mM; DTT: 2 mM; Tween-20: 0.01%), mixed thoroughly and spun down. For every sample, 2 μL of the diluted compound were mixed with 6 μL CDK/Cyclin/Substrat solution and […] in a well of a small volume 384 well plate (Corning Incorporated, Corning, N.Y., USA; order no. 3673). […] For positive controls, in each well 2 μL of DMSO solution (1% final DMSO assay concentration) was mixed with 6 μL CDK/Cyclin/Substrat (appropriate final concentration see Table 3) and 2 μL Tracer ATP solution (appropriate final concentration see Table 3). Positive and negative controls were calculated from at least 8 different sample wells. The 384 well plates were mixed in a Teleshaker plate mixer (Beckman Coulter, Brea, Calif., USA) at 2000 rpm for 40 sec, and incubated for 1 h at room temperature. Before reading, 10 μL detection buffer (Lance Detection Buffer 1×; EDTA: […]; Eu-Anti-P-MBP: see Table 3) was added. The FRET signal was measured at 340 nm excitation, 665 nm and 615 nm emission (for the kinase tracer and LanthaScreen Eu-AB, respectively) with an Envision spectrophotometer (Perkin Elmer, Waltham, Mass., USA) with 50 μs delay and 300 μs integration time. IC50 values were determined from the sigmoidal dose response curves with the software Quattro Workflow (Quattro GmbH, Munich, Germany).

Another assay has as its target T3, CDK4/CyclinD1 (Homo sapiens, UniProt P11802).
T3 construct: purchased Invitrogen
As to the kind of experiment: Lance Ultra KinaSelect Assay, CDK4. In kind it is biochemical. The following applies: ATP 90 μM, read-out: Inhibition (IC50) CDK4. How it is done: as §1, §2

The next assay deals with T4, CDK6/CyclinD3 (Homo sapiens, UniProt Q00534).
T4 construct: purchased Carna
T4 sequence (Q00534 whole entry): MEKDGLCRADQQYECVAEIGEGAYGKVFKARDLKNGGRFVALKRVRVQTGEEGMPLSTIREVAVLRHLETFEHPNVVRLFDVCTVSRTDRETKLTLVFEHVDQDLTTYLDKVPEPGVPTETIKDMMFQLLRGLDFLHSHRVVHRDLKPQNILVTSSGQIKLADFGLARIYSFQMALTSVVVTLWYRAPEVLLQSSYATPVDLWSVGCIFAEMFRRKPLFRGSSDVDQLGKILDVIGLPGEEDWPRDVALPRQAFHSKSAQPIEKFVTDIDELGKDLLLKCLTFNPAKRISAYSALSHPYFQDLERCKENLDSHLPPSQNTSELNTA
T4 sequence (P30281 whole entry partner): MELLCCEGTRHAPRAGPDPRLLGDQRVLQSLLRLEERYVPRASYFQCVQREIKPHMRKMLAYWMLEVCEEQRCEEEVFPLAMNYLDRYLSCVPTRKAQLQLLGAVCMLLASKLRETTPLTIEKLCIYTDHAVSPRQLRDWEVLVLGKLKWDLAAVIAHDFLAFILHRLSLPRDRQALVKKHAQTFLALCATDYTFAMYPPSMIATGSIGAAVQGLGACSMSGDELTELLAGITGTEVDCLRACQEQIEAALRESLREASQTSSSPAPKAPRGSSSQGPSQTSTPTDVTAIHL
Description: Lance Ultra KinaSelect Assay, CDK6. In kind it is biochemical. The following applies: read-out: Inhibition (IC50) CDK6. How it is done: as §1, §2

Assay [1] has as its system RNA Polymerase II Ser2 phosphorylation (cellular CDK9 activity) in HCT-116 cells. As to the kind of experiment: RNA-Polymerase II Ser2 cellular phosphorylation assay. It counts as cell-based. Conditions: Homo sapiens, normalized with tubulin. How it is done: HCT-116 cells (DSMZ, Braunschweig, Germany) were maintained in Mc Coy's cell culture medium+glutamine (PAN Biotech GmbH, Aidenbach, Germany) supplemented with 10% fetal calf serum (PAA Laboratories GmbH, Pasching, Austria) and grown at 37° C., 5% CO2. For the cellular phosphorylation assay, cells were seeded with 2×10^5 cells/well/1 ml in 24-well plates (Greiner Bio—One, Frickenhausen, Germany; catalog #662160). The compounds of general formula (I) summarized in Table 6 were diluted from a 10 mM DMSO stock solution 1:10 in a total volume of 15 μL DMSO. After overnight incubation at 37° C./5% CO2, 1.5 μL of a compound diluted in DMSO was added to each sample well. Wells with cells and 0.15% DMSO in culture medium were used as positive controls, wells without cells and 0.15% DMSO in culture medium were used as negative controls. The cells were incubated with the compounds for 72 h at 37° C./5% CO2. Before lysis, cells were washed with phosphate buffered saline. Phosphorylation of RNA Polymerase II Ser2 and tubulin levels for normalization were analyzed afterwards with the Multi-Array technology (Meso Scale Discovery, Gaithersburg, Md., USA), a combination of antibody coupled electrochemiluminescence detection and patterned arrays. Manufacturer's instructions were followed and all solutions were purchased from Meso Scale Discovery. In brief, cells were lysed by 30 min incubation in CLB1 lysis buffer (Zeptosens, Witterswil, Switzerland; 60 μL per well), and supernatants were cleared by centrifugation. For analysis of RNA Polymerase II Ser2-phosphorylation, lysates were diluted 1:50 with Meso Scale Lysis Buffer supplemented with phosphatase- and protease-inhibitors, and 25 µL of each sample was pipetted in a well of a MSD Multi-Array 96-Well Plate Sector® Imager High Bind Plate (Meso Scale Discovery; catalog #L15XB-3/L11XB-3), and incubated for 2 h at room temperature. […] Meso Scale Tris Wash Buffer supplemented with 3% w/v Meso Scale Blocker A were added per well, then plates were sealed and incubated 1 h with vigorous shaking. Plates were washed with 1× Tris Wash Buffer (10× Meso Scale Wash Buffer diluted 1:10 in destilled water), 25 μL of antibody solution was added (CTD7 3E10 antibody from Helmholtz Zentrum Munich, Germany, diluted 1:100 in Meso Scale Tris Wash Buffer supplemented with 1% w/v Meso Scale Blocker A), and plates were washed three times in 1× Tris Wash Buffer. 25 μL of MSD® SULFO-TAG™ Goat-Anti-Rat-Antibody (Meso Scale Discovery, catalog #R^32AH-1, diluted 1:125 in Tris Wash Buffer with 1% (w/v) blocker A) were added per well, plates were sealed and incubated with vigorous shaking for 1 h at room temperature. Finally, plates were washed three times with Tris Wash Buffer, 150 μl 2× Read Buffer (Meso Scale Discovery) were added per well and plates were analyzed immediately in a Sector Imager from Meso Scale Discovery. For determination of tubulin protein levels, samples were analyzed with the protocol for RNA Polymerase II Ser2-phosphorylation, with an anti-tubulin antibody (rabbit; BIODESIGN International, catalog #T59840R, diluted 1:100) and a MSD® SULFO-TAG™ […] (Meso Scale Discovery, catalog #R^32AH-1, diluted 1:125). RNA Polymerase II Ser2 phosphorylation was normalized with tubulin protein levels, and EC50 values were calculated with the software XLFit (IDBS, Guildford, UK) from 2-fold dilution series comprising 6 concentrations in duplicates.

Molecules are shown by their SMILES. Counter-ions that a name gives are not always drawn. Bounds are passed on as bounds.

T3 sequence (P11802 whole entry): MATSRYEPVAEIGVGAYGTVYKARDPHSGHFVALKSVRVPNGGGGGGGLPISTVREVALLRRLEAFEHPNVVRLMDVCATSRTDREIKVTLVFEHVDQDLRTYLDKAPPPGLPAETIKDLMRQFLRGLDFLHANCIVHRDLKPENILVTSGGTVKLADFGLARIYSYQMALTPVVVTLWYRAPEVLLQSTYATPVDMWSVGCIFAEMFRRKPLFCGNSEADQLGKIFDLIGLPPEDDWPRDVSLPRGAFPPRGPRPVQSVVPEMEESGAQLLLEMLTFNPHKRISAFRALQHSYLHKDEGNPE
T3 sequence (P24385 whole entry partner): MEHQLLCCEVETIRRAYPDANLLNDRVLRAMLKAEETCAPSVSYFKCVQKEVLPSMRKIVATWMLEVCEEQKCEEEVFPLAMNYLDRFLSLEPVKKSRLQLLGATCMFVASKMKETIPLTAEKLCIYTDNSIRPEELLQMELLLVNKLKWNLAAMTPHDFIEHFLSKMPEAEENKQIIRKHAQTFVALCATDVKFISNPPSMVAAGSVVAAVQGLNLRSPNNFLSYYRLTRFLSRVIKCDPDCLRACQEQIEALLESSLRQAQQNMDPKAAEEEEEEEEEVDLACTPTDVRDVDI
T1 sequence (P50750 whole entry): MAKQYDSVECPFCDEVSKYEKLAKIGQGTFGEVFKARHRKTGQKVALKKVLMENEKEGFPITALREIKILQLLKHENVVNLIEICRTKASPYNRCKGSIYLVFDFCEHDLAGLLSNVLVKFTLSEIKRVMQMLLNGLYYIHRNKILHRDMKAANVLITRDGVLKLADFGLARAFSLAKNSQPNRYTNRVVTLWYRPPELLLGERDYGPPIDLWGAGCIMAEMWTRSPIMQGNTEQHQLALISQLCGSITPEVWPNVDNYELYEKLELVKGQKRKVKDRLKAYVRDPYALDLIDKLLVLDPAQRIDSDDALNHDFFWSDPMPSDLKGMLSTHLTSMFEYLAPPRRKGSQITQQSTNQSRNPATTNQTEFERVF

Regarding `CCOc1ccccc1-c1ncnc(Nc2cccc(CS(N)(=O)=O)c2)n1` [Compound B12, 3-[(4-(2-Ethoxyphenyl)-1,3,5-triazin-2-yl)amino]benzenemethanesulfonamide], the IC50 on CDK9 is 0.102 µM; at CDK7/CyclinH/Mat1, > 10 µM; at CDK4/CyclinD1, > 10 µM; on CDK6/CyclinD3, > 10 µM; in assay [1] it was 17.5 µM.

On to `COc1ccccc1-c1ncnc(Nc2cccc(CS(N)(=O)=O)c2)n1` [B1′, 3-[(4-(2-Methoxyphenyl)-1,3,5-triazin-2-yl)amino]benzenemethanesulfonamide trifluoroacetic acid salt], for which the IC50 at CDK9 was 0.0965 µM; on CDK7/CyclinH/Mat1 it was > 10 µM; on CDK4/CyclinD1, > 10 µM; on CDK6/CyclinD3, > 10 µM; in assay [1], 10.9 µM.

A word on the IC50: it is the point on the concentration scale where inhibition reaches its midpoint.
